In the assay the target is T1, FGFR3 K650M (Homo sapiens, UniProt P22607, K650M).
T1 construct: purchased Thermo Fisher Scientific (Life Technologies) SelectScreen
Nature of the assay: SelectScreen LanthaScreen. In kind it is binding. The conditions noted are these: read-out: % displacement. Put shortly:
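NU5455 was profiled across the SelectScreen Broad panel of kinase activity and binding assays. Z'LYTE reactions such as CSF1R ran at apparent Km ATP, while the Adapta CAMK1 assay used ATP listed as 10. Values are given as percent.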
On the technique in general: TR-FRET usually uses a lanthanide donor and a delayed reading to cut background.

T1 sequence (P22607 23-806 K650M): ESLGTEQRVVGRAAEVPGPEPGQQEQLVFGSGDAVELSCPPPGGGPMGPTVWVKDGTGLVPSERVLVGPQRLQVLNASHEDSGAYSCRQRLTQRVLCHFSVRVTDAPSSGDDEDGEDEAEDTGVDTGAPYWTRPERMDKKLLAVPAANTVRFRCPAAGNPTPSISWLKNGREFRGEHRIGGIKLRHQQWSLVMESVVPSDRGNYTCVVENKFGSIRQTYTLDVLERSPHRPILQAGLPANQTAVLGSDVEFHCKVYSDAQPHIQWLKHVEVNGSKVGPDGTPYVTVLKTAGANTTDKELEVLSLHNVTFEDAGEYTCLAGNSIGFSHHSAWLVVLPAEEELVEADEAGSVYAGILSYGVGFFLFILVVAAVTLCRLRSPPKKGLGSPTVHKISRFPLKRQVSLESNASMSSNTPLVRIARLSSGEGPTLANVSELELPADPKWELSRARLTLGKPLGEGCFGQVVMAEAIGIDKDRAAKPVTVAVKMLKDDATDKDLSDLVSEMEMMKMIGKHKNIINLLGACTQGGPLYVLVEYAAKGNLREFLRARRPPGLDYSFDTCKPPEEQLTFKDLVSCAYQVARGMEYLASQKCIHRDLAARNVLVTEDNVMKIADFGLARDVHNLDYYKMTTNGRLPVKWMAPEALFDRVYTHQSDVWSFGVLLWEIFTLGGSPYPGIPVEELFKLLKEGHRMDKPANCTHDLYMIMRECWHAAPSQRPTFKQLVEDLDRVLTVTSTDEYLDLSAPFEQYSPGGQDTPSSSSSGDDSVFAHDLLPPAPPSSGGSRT

Turning to `CN(C(=O)CN1CCOCC1)c1ccc2sc3c(-c4cccc5c(=O)cc(N6CC7CCC(C6)O7)oc45)cccc3c2c1` [NU5455], the inhibition at 1 µM came to 16.5%.
